Source: paper PMC7413254 (Nature Communications, 2020)

Key:
non-expressing oocytes = assay: cells; type: cell-based, Xenopus laevis; details: total [3H]CQ transport; for Uptake of [3H]CQ (% non-expressing oocyte control), cis-inhibition: non-expressing oocytes, normalised to the oocyte type control; for Uptake of [3H]CQ (% PfCRTDd2 control), cis-inhibition, non-expressing oocytes: mean ± SEM, SEM
Method in brief: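 Transport runs from the acidic bath into the cytosol, analogous to PfCRT-mediated efflux out of the vacuole. Non-expressing oocytes act as background.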

PfCRT^Ecu1110 = PfCRT^Ecu1110 (Plasmodium falciparum, UniProt Q9N623, A220S/I356L/K76T/N326D); assay: cell-based; type: cell-based; details: for Uptake of [3H]CQ (% PfCRTEcu1110 control), trans-stimulation / PfCRT-mediated [3H]CQ transport, trans-stimulation (% PfCRTEcu1110 control): PfCRTEcu1110 oocytes; for Uptake of [3H]CQ (% PfCRTEcu1110 control), trans-stimulation / Uptake of [3H]CQ (% PfCRTDd2 control), trans-stimulation, PfCRTEcu1110: total [3H]CQ transport; for Uptake of [3H]CQ (% PfCRTEcu1110 control), trans-stimulation: normalised to the oocyte type control; for PfCRT-mediated [3H]CQ transport, trans-stimulation (% PfCRTEcu1110 control): normalised to oocyte type control; for Uptake of [3H]CQ (% PfCRTDd2 control), trans-stimulation, PfCRTEcu1110 / [3H]CQ transport (% PfCRTDd2 control), trans-stimulation, PfCRTEcu1110: mean ± SEM, SEM; for [3H]CQ transport (% PfCRTDd2 control), trans-stimulation, PfCRTEcu1110: PfCRT-mediated component (background subtracted), sheet title says normalised to PfCRTDd2 control
PfCRT^Ecu1110, sequence (Q9N623 whole entry A220S/I356L/K76T/N326D): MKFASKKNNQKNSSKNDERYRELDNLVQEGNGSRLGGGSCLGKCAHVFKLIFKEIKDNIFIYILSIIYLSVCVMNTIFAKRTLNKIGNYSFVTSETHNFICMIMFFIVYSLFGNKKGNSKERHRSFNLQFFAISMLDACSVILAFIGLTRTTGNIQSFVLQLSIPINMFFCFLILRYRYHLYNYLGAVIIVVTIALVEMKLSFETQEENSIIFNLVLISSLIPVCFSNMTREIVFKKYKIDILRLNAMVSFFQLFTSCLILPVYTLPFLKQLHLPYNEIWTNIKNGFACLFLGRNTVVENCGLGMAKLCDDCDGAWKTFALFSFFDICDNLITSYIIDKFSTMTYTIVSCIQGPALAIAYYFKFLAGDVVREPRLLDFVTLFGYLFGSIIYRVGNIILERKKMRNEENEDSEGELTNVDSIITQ
Method in brief: (§1)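 Oocytes (ten per treatment, ≥4 independent frogs/days) were preloaded by injecting VF-6 in 25 nL ND96 at pH 5.0, 5.5, 6.0 or 7.0, or Na^+-free choline buffer, then uptake run 1.5 h, 27.5 °C, ND96 pH 5.5 by default. Internal concentrations assumed ~400 nL oocyte volume.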

PfCRT^Dd2 = PfCRT^Dd2 (Plasmodium falciparum, UniProt Q9N623, A220S/I356T/K76T/M74I/N326S/N75E/Q271E/R371I); assay: cell-based; type: cell-based; details: for Uptake of [3H]CQ (% PfCRTDd2 control), trans-stimulation / PfCRT-mediated [3H]CQ transport, trans-stimulation (% PfCRTDd2 control): PfCRTDd2 oocytes; for Uptake of [3H]CQ (% PfCRTDd2 control), trans-stimulation / Uptake of [3H]CQ (% PfCRTDd2 control), trans-stimulation, PfCRTDd2: total [3H]CQ transport; for Uptake of [3H]CQ (% PfCRTDd2 control), trans-stimulation: normalised to the oocyte type control; for PfCRT-mediated [3H]CQ transport, trans-stimulation (% PfCRTDd2 control): normalised to oocyte type control; for Uptake of [3H]CQ (% PfCRTDd2 control), trans-stimulation, PfCRTDd2 / [3H]CQ transport (% PfCRTDd2 control), trans-stimulation, PfCRTDd2: mean ± SEM, SEM; for [3H]CQ transport (% PfCRTDd2 control), trans-stimulation, PfCRTDd2: PfCRT-mediated component (background subtracted)
PfCRT^Dd2, sequence (Q9N623 whole entry A220S/I356T/K76T/M74I/N326S/N75E/Q271E/R371I): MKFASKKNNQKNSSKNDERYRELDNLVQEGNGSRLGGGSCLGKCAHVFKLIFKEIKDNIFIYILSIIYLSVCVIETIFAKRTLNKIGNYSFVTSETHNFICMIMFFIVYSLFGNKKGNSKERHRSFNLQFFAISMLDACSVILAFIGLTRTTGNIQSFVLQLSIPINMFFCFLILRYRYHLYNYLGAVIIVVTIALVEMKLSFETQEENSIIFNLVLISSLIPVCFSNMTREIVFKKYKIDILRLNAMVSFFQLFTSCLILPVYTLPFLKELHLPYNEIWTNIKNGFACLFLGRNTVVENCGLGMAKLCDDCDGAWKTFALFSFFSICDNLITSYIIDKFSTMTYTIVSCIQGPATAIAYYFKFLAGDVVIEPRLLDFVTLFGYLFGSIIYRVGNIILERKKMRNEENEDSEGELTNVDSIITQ
Method in brief: as §1

PfCRT^3D7 = PfCRT^3D7 (Plasmodium falciparum, UniProt Q8IBZ9); assay: cell-based; type: cell-based; details: for Uptake of [3H]CQ (% PfCRT3D7 control), trans-stimulation / PfCRT-mediated [3H]CQ transport, trans-stimulation (% PfCRT3D7 control): PfCRT3D7 oocytes; for Uptake of [3H]CQ (% PfCRT3D7 control), trans-stimulation / Uptake of [3H]CQ (% PfCRTDd2 control), trans-stimulation, PfCRT3D7: total [3H]CQ transport; for Uptake of [3H]CQ (% PfCRT3D7 control), trans-stimulation: normalised to the oocyte type control; for PfCRT-mediated [3H]CQ transport, trans-stimulation (% PfCRT3D7 control): normalised to oocyte type control; for Uptake of [3H]CQ (% PfCRTDd2 control), trans-stimulation, PfCRT3D7: mean ± SEM, SEM
PfCRT^3D7, sequence (Q8IBZ9 59-398): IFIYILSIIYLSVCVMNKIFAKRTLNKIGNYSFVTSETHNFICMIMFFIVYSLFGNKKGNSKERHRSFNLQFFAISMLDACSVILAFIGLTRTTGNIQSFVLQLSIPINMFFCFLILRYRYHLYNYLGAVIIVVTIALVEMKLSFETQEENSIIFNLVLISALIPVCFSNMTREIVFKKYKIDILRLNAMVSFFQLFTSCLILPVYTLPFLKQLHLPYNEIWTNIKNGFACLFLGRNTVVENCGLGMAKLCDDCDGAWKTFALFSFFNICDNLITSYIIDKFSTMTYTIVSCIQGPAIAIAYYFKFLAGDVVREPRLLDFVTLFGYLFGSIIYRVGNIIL
Method in brief: as §1

PfNT1 = molecular target: T1, PfNT1 (Plasmodium falciparum, UniProt Q8IDM6); assay: cell-based; type: cell-based; details: total [3H]CQ transport; for Uptake of [3H]CQ (% PfNT1 control), trans-stimulation: PfNT1 oocytes, normalised to the oocyte type control
T1 construct: expressed in transfected cells; host or cells: Xenopus laevis oocytes (stage V-VI), cRNA-injected
T1 sequence (Q8IDM6 whole entry): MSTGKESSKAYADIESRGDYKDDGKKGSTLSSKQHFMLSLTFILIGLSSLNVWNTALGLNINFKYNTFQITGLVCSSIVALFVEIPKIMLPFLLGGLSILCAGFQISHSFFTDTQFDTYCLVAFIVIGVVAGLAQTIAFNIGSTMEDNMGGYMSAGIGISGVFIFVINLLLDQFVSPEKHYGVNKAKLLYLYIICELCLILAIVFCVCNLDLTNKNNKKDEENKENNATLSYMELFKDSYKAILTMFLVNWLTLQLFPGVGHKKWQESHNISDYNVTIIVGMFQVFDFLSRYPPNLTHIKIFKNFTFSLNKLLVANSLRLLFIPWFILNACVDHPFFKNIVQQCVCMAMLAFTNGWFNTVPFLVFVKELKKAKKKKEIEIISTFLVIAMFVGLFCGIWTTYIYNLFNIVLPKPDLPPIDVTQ
Method in brief: as §1

[1] = [test solute]i = 45 mM (30 mM for some solutes due to solubility)
[2] = [test solute]i = 5 mM (intracellular)
[3] = [test solute]i = 45 mM (intracellular; 30 mM for some solutes due to solubility)
[4] = [test solute]i = 5 mM (injected)

NC(=O)C[C@H](N)C(=O)O [L-asparagine]
Uptake of [3H]CQ (% non-expressing oocyte control), cis-inhibition (non-expressing oocytes; [test solute] = 0.5 mM): 100 ± 5.6 % non-expressing oocyte control
Uptake of [3H]CQ (% non-expressing oocyte control), cis-inhibition (non-expressing oocytes; [test solute] = 1 mM): 98 ± 5.3 % non-expressing oocyte control
Uptake of [3H]CQ (% non-expressing oocyte control), cis-inhibition (non-expressing oocytes; [test solute] = 2 mM): 100 ± 4.6 % non-expressing oocyte control
Uptake of [3H]CQ (% PfCRTDd2 control), cis-inhibition, non-expressing oocytes (non-expressing oocytes; [test solute] = 0.5 mM): 3.9 ± 0.02 % PfCRTDd2 control
Uptake of [3H]CQ (% PfCRTDd2 control), cis-inhibition, non-expressing oocytes (non-expressing oocytes; [test solute] = 1 mM): 2.8 ± 0.04 % PfCRTDd2 control
Uptake of [3H]CQ (% PfCRTDd2 control), cis-inhibition, non-expressing oocytes (non-expressing oocytes; [test solute] = 2 mM): 2.5 ± 0.05 % PfCRTDd2 control
Uptake of [3H]CQ (% PfCRTEcu1110 control), trans-stimulation (PfCRT^Ecu1110; [test solute]i = 5 mM): 98 ± 4.1 % PfCRTEcu1110 control
Uptake of [3H]CQ (% PfCRTEcu1110 control), trans-stimulation (PfCRT^Ecu1110; [1]): 98 ± 3.2 % PfCRTEcu1110 control
PfCRT-mediated [3H]CQ transport, trans-stimulation (% PfCRTEcu1110 control) (PfCRT^Ecu1110; [2]): 96 ± 2.1 % PfCRTEcu1110 control
PfCRT-mediated [3H]CQ transport, trans-stimulation (% PfCRTEcu1110 control) (PfCRT^Ecu1110; [3]): 96 ± 2.7 % PfCRTEcu1110 control
Uptake of [3H]CQ (% PfCRTDd2 control), trans-stimulation, PfCRTEcu1110 (PfCRT^Ecu1110; [2]): 35 ± 1.8 % PfCRTDd2 control
Uptake of [3H]CQ (% PfCRTDd2 control), trans-stimulation, PfCRTEcu1110 (PfCRT^Ecu1110; [3]): 35 ± 2.1 % PfCRTDd2 control
[3H]CQ transport (% PfCRTDd2 control), trans-stimulation, PfCRTEcu1110 (PfCRT^Ecu1110; [4]): 32 ± 1.6 % PfCRTEcu1110 control
[3H]CQ transport (% PfCRTDd2 control), trans-stimulation, PfCRTEcu1110 (PfCRT^Ecu1110; [1]): 32 ± 2.1 % PfCRTEcu1110 control
Uptake of [3H]CQ (% PfCRTDd2 control), trans-stimulation (PfCRT^Dd2; [test solute]i = 5 mM): 101 ± 3.1 % PfCRTDd2 control
Uptake of [3H]CQ (% PfCRTDd2 control), trans-stimulation (PfCRT^Dd2; [1]): 98 ± 2.4 % PfCRTDd2 control
PfCRT-mediated [3H]CQ transport, trans-stimulation (% PfCRTDd2 control) (PfCRT^Dd2; [2]): 99 ± 2.4 % PfCRTDd2 control
PfCRT-mediated [3H]CQ transport, trans-stimulation (% PfCRTDd2 control) (PfCRT^Dd2; [3]): 96 ± 3.2 % PfCRTDd2 control
Uptake of [3H]CQ (% PfCRTDd2 control), trans-stimulation, PfCRTDd2 (PfCRT^Dd2; [2]): 101 ± 3.1 % PfCRTDd2 control
Uptake of [3H]CQ (% PfCRTDd2 control), trans-stimulation, PfCRTDd2 (PfCRT^Dd2; [3]): 98 ± 2.4 % PfCRTDd2 control
[3H]CQ transport (% PfCRTDd2 control), trans-stimulation, PfCRTDd2 (PfCRT^Dd2; [4]): 99 ± 2.4 % PfCRTDd2 control
[3H]CQ transport (% PfCRTDd2 control), trans-stimulation, PfCRTDd2 (PfCRT^Dd2; [1]): 96 ± 3.2 % PfCRTDd2 control
Uptake of [3H]CQ (% PfCRT3D7 control), trans-stimulation (PfCRT^3D7; [test solute]i = 5 mM): 100 ± 4.2 % PfCRT3D7 control
Uptake of [3H]CQ (% PfCRT3D7 control), trans-stimulation (PfCRT^3D7; [1]): 100 ± 3.7 % PfCRT3D7 control
PfCRT-mediated [3H]CQ transport, trans-stimulation (% PfCRT3D7 control) (PfCRT^3D7; [2]): 98 ± 3.6 % PfCRT3D7 control
PfCRT-mediated [3H]CQ transport, trans-stimulation (% PfCRT3D7 control) (PfCRT^3D7; [3]): 98 ± 2.8 % PfCRT3D7 control
Uptake of [3H]CQ (% PfCRTDd2 control), trans-stimulation, PfCRT3D7 (PfCRT^3D7; [2]): 3.3 ± 0.01 % PfCRTDd2 control
Uptake of [3H]CQ (% PfCRTDd2 control), trans-stimulation, PfCRT3D7 (PfCRT^3D7; [3]): 3.3 ± 0.04 % PfCRTDd2 control
Uptake of [3H]CQ (% PfNT1 control), trans-stimulation (PfNT1; [test solute]i = 5 mM): 100 ± 2.5 % PfNT1 control
Uptake of [3H]CQ (% PfNT1 control), trans-stimulation (PfNT1; [1]): 99 ± 3.6 % PfNT1 control
Uptake of [3H]CQ (% PfCRTDd2 control), trans-stimulation, PfNT1 (PfNT1; [test solute]i = 5 mM (intracellular), mean ± SEM, SEM): 2.8 ± 0.04 % PfCRTDd2 control
